From patent US20210230179A1, “THIENO[2,3-B]PYRIDINE DERIVATIVES AS EPAC INHIBITORS AND THEIR PHARMACEUTICAL USES” (INSTITUT NATIONAL DE LA SANTE ET DE LA RECHERCHE MEDICALE …, priority 2018, published 2021)

What was measured:
[1] = test system: type II PKA holoenzyme; test: type II PKA holoenzyme activation; assay type: biochemical; settings: 30 μM, presence and absence of 10 μM cAMP
[2] = molecular target: T1, Epac2 (Homo sapiens, UniProt Q8WZA2); test: Epac GEF activity assay (b-GDP dissociation from recombinant Rap1), Epac2; assay type: biochemical
T1 sequence (Q8WZA2 1-867 isoform Q8WZA2-3): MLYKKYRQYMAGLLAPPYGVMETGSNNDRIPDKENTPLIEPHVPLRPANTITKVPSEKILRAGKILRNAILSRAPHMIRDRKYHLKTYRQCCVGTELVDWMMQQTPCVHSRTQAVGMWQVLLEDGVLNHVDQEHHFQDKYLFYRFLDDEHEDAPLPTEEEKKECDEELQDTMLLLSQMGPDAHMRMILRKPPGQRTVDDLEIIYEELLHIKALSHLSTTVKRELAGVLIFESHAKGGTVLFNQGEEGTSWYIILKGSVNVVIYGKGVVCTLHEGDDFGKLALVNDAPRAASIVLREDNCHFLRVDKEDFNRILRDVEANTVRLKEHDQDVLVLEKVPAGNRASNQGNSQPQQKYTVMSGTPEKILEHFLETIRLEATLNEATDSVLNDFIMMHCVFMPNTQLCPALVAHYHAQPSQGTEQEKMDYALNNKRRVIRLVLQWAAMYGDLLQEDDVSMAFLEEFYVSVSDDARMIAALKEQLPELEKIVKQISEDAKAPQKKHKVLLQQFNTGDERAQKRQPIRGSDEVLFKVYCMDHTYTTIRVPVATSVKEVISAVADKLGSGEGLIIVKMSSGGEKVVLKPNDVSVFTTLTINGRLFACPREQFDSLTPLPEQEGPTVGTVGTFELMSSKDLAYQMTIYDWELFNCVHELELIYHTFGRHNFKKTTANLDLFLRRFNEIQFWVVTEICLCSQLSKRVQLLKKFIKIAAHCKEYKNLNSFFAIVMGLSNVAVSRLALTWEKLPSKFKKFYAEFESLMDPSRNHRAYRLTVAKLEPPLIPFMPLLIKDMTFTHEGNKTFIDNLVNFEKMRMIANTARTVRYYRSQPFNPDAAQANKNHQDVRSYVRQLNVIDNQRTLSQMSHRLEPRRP
From the text: FIGS. 4-8. […] Variations of relative fluorescence units (RFU) were studied as a function of time and fitted to single exponentials.

[3] = test system: wild-type C57BL/6 mice; test: chronic ISO infusion (chronic β-AR activation): cardiac function, remodelling, tolerability
From the text: FIG. 17: AST and ALT activities in the serum of mice treated under the indicated conditions (left panel) (n=7 per group). Comparison of FS in animals between day 1 and day 14 in the presence or absence of AM-001 (right panel) (n=12 per group).
FIG. 18: LVW/TL ratios of mice after 14 days of treatment with vehicle or AM-001.
FIG. 20: Comparison of FS, LVIDs and LVIDd in ISO treated animals between day 1 and day 14 in the presence or absence of AM-001 (n=18-20 per group).
FIG. 21: Representative immunoblots of Epac1, GRK2, and GRK5. Statistical significance was determined by two-way ANOVA followed by Bonferroni post-test. * p<0.05, ** p<0.01, *** p<0.001, **** p<0.0001 vs indicated values. ns, not significant.
Osmotic mini-pumps (Alzet) were implanted subcutaneously in mice anaesthetized with isoflurane (1%). Pumps were filled with ISO or sterile saline and were set to deliver ISO at 60 mg/kg per day for 14 days to induce cardiac hypertrophy. AM-001 treatment (10 mg/kg/d diluted in 10% DMSO/20% Kolliphor/70% sterile saline) is given from the third day of ISO infusion. Mice were subsequently euthanized with barbiturate overdose (pentobarbital, 150 mg/kg, i.p.) and mini-pumps were weighed in order to verify complete diffusion.
Echocardiography was carried out on lightly anaesthetized (1% isoflurane in air) mice placed on a heating pad. The left ventricle dimensions were obtained during TimeMouvement mode acquisition from the parasternal short-axis view at the midventricular level of the papillary muscles using a Vevo2100 ivid7 echograph and a […] transducer (M550i13L, VisualsonicsGE Healthcare). Images were transferred and analysed off line with Vevolab software EchoPAC (GE Healthcare).
Determination of fibrosis Hearts were transversely sectioned at 10 μm thickness, fixed with 4% paraformaladehyde and stained with Sirius Red. Slides were scanned with NanoZoomer (Hamamatsu v1.2) and fibrosis was measured as positively stained area with Sirius Red and expressed as percent of total area, using ImageJ software (RSB).
Hearts were collected, fixed in 4% paraformaldehyde, dehydrated, and embedded in OCT tissue embedding compound (Tissue Tek, EMS). Longitudinal sections were performed at 10 μm in thickness and stained with hematoxylin and eosin for histological examination.
Aspartate aminotransferase (AST) and alanine aminotransferase (ALT) were measured in serum to determine the cytotoxicity, using specific kits purchased from ScienCell Research Laboratories following the manufacturer's instructions.
The inventors next sought to determine whether AM-001 could provide improvement in cardiac function and remodelling during chronic p-AR activation.

[4] = test system: isolated adult cardiomyocytes; test: hypoxia-reoxygenation injury of isolated adult cardiomyocytes (LDH release); assay type: cell-based, mouse
[5] = ISO 60 mg/kg per day 14 days, AM-001 10 mg/kg from day 3

Nc1c(C(=O)Nc2ccc(F)cc2)sc2nc(-c3cccs3)cc(-c3ccccc3)c12 [AM-001, 3-amino-N-(4-fluorophenyl)-4-phenyl-6-(thiophen-2-yl)thieno[2,3-b]pyridine-2-carboxamide]
effect on type II PKA holoenzyme activation [1]: did not influence
effect on Epac2 GEF activity ([2]; 30 μM Sp-8-CPT, 20 μM inhibitor): no inhibitory effect
IC50 ([2]; Sp-8-CPT at its EC50 for the isoform): > 1 mM
IC50 ([2]; saturating concentration of Sp-8-CPT): > 1 mM
liver and renal histology (H & E staining) ([3]; 10 mg/kg i.p. day 3 to day 14): did not display any apparent histological alterations
plasma level of alanine aminotransferase (ALT) ([3]; 10 mg/kg i.p. day 3 to day 14): equivalent in each group
plasma level of aspartate aminotransferase (AST) ([3]; 10 mg/kg i.p. day 3 to day 14): equivalent in each group
LVW/TL ratio under ISO [3, 5]: further decreased
fibrosis (Sirius Red positive area, percent of total area) [3, 5]: 1.1±0.5%
left ventricular end-diastolic internal diameter (LVIDd) ([3]; during ISO treatment): decrease
left ventricular end-systolic internal diameter (LVIDs) ([3]; during ISO treatment): decrease
ISO-induced upregulation of GRK5 expression ([3]; immunoblot, ISO treated animals): significantly reduced
fractional shortening (FS) after 14 days of ISO ([3]; vs vehicle treated mice): higher FS
effect on 8-CPT-AM-induced cardiomyocyte death and hypertrophy ([4]; AM-001 20 μM, 8-CPT-AM 10 μM): inhibited the effect
cardiomyocyte survival by LDH release ([4]; HX+R condition, 20 μM, 30 min pretreatment, vs control cells): significantly increased cardiomyocyte survival
